Data published in ChEMBL document CHEMBL5528042, “Identification of Novel, Selective Ataxia-Telangiectasia Mutated Kinase Inhibitors with the Ability to Penetrate the Blood-Brain Barrier: The Discovery of AZD1390” (J Med Chem, 2024).
≈ marks a conversion by molar mass, not a printed value.

Assays:
[1] = Volume of distribution at steady state in dog at 2 mg/kg,po or 1 mg/kg,iv administration measured for 24 hrs by LC-MS/MS analysis; assay type: ADME, organism-based, Canis lupus familiaris; conditions: in vivo
[2] = Bioavailability in rat at 1 mg/kg,po or 0.5 mg/kg,iv administration measured for 24 hrs by LC-MS/MS analysis; assay type: ADME, organism-based; conditions: in vivo
[3] = Volume of distribution at steady state in rat at 1 mg/kg,po or 0.5 mg/kg,iv administration measured for 24 hrs by LC-MS/MS analysis; assay type: ADME, organism-based; conditions: in vivo
[4] = Bioavailability in dog at 2 mg/kg,po or 1 mg/kg,iv administration measured for 24 hrs by LC-MS/MS analysis; assay type: ADME, organism-based, Canis lupus familiaris; conditions: in vivo
[5] = Dissociation constant, pKa of compound; assay type: physicochemical
[6] = Aqueous solubility of the compound in pH 7.4; assay type: physicochemical; conditions: buffer
[7] = target: Serine/threonine-protein kinase ATR (Homo sapiens, UniProt Q13535); test: Inhibition of ATR in human HT-29 cells incubated for 2 hrs by Alexa Fluor 488/Hoeschst staining based plate reader assay; assay type: cell-based
[8] = Intrinsic clearance in human hepatocyte assessed per 10^6 cells; assay type: ADME, cell-based; conditions: hepatocytes, read-out: CLH
[9] = Lipophilicity, logD of the compound at pH 7.4; assay type: physicochemical; conditions: buffer
[10] = Apparent permeability across apical to basolateral side in dog MDCKII-MDR1 cells overexpressing BCRP at 0.1 uM incubated for 90 mins by LC-MS/MS analysis; assay type: ADME, cell-based, Canis lupus familiaris, MDCK-MDR1
[11] = Apparent permeability across apical to basolateral side in dog MDCKII-MDR1 cells overexpressing BCRP at 1 uM incubated for 90 mins by LC-MS/MS analysis; assay type: ADME, cell-based, Canis lupus familiaris, MDCK-MDR1
[12] = Intrinsic clearance in rat hepatocyte assessed per 10^6 cells; assay type: ADME, cell-based; conditions: hepatocytes, read-out: CLH
[13] = target: Phosphatidylinositol 4,5-bisphosphate 3-kinase catalytic subunit alpha isoform (Homo sapiens, UniProt P42336); test: Inhibition of PI3Kalpha in human BT-474 cells incubated for 140 mins by ELISA; assay type: cell-based
[14] = Plasma protein binding in rat assessed as unbound fraction incubated for 16 hrs by equilibrium dialysis based UPLC-MS/MS analysis; assay type: ADME, cell-free
[15] = target: Serine/threonine-protein kinase mTOR (Homo sapiens, UniProt P42345); test: Inhibition of mTOR in human MDA-MB-468 cells incubated for 2.5 hrs by Alexa Fluor 488 staining based fluorescence analysis; assay type: cell-based
[16] = Plasma protein binding in human assessed as unbound fraction incubated for 16 hrs by equilibrium dialysis based UPLC-MS/MS analysis; assay type: ADME, cell-free
[17] = Half life in rat at 1 mg/kg,po or 0.5 mg/kg,iv administration measured for 24 hrs by LC-MS/MS analysis; assay type: ADME, organism-based; conditions: in vivo
[18] = Plasma protein binding in dog assessed as unbound fraction incubated for 16 hrs by equilibrium dialysis based UPLC-MS/MS analysis; assay type: ADME, cell-free, Canis lupus familiaris
[19] = Half life in dog at 2 mg/kg,po or 1 mg/kg,iv administration measured for 24 hrs by LC-MS/MS analysis; assay type: ADME, organism-based, Canis lupus familiaris; conditions: in vivo
[20] = target: DNA-dependent protein kinase catalytic subunit (Homo sapiens, UniProt P78527); test: Inhibition of DNA-PK (unknown origin)

Chain of Serine/threonine-protein kinase ATR (Q13535 whole entry): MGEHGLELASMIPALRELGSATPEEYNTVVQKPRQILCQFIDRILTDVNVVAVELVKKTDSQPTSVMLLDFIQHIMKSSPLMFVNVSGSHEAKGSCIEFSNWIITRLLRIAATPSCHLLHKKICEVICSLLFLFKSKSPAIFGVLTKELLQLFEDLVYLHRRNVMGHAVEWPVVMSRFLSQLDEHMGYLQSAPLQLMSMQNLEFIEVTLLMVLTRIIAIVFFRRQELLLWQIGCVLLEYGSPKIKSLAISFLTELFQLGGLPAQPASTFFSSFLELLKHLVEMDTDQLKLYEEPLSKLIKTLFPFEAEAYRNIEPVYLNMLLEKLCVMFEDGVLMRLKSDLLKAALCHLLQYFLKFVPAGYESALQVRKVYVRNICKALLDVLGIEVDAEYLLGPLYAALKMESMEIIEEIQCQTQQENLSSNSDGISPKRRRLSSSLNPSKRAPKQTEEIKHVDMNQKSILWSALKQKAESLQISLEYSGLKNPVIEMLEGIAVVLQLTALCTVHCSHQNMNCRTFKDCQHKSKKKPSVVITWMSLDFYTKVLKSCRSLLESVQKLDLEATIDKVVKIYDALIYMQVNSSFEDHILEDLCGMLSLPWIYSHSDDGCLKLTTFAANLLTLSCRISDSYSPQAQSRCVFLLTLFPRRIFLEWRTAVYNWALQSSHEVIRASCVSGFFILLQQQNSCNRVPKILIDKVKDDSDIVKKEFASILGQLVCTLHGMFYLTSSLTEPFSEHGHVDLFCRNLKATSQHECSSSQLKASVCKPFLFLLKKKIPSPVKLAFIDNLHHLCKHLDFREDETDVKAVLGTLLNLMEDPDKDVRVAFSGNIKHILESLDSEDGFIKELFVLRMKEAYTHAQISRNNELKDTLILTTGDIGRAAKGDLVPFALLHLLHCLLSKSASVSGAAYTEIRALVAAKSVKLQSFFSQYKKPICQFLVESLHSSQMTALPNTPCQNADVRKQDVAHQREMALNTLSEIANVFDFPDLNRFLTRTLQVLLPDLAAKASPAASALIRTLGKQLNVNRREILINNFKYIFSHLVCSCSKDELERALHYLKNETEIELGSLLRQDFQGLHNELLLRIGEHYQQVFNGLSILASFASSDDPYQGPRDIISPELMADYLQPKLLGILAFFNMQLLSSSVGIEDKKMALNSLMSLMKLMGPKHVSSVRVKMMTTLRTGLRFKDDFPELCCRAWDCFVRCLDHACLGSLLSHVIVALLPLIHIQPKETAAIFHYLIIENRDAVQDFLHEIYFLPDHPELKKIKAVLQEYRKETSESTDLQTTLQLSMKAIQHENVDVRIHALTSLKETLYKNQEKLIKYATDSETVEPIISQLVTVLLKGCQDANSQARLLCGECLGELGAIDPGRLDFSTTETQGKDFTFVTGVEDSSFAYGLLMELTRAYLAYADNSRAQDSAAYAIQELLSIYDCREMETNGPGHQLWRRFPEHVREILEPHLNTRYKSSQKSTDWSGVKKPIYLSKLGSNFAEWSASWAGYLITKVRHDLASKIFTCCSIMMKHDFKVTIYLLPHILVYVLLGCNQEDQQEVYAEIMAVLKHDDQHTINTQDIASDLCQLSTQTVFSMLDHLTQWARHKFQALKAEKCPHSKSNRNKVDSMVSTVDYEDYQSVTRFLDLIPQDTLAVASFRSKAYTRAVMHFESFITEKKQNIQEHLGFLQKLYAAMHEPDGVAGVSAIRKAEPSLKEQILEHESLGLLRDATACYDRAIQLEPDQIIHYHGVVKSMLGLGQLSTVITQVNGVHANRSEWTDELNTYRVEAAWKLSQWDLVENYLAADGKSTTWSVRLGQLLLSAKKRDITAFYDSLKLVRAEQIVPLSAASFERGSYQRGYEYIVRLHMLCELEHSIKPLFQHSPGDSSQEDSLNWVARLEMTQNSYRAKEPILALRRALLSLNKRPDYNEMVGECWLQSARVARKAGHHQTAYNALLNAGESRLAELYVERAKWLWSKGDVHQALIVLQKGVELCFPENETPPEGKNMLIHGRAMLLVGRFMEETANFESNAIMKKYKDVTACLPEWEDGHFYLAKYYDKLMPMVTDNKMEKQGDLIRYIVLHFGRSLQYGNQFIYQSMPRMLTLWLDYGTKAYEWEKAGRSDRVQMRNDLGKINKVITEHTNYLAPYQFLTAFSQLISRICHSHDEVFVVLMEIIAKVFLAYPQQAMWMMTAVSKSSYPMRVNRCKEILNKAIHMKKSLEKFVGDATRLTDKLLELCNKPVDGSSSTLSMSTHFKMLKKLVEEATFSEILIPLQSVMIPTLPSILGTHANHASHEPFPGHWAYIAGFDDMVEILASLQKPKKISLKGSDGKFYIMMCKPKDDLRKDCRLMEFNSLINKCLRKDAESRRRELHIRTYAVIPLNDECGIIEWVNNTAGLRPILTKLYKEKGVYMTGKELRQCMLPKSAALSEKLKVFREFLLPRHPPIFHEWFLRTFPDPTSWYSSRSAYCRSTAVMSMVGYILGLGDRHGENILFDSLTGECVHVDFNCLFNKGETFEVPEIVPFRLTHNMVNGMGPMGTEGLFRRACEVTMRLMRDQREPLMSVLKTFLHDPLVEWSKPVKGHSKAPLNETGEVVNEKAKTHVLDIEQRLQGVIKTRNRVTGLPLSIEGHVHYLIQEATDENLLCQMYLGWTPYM
Chain of Phosphatidylinositol 4,5-bisphosphate 3-kinase catalytic subunit alpha isoform (P42336 whole entry, canonical isoform): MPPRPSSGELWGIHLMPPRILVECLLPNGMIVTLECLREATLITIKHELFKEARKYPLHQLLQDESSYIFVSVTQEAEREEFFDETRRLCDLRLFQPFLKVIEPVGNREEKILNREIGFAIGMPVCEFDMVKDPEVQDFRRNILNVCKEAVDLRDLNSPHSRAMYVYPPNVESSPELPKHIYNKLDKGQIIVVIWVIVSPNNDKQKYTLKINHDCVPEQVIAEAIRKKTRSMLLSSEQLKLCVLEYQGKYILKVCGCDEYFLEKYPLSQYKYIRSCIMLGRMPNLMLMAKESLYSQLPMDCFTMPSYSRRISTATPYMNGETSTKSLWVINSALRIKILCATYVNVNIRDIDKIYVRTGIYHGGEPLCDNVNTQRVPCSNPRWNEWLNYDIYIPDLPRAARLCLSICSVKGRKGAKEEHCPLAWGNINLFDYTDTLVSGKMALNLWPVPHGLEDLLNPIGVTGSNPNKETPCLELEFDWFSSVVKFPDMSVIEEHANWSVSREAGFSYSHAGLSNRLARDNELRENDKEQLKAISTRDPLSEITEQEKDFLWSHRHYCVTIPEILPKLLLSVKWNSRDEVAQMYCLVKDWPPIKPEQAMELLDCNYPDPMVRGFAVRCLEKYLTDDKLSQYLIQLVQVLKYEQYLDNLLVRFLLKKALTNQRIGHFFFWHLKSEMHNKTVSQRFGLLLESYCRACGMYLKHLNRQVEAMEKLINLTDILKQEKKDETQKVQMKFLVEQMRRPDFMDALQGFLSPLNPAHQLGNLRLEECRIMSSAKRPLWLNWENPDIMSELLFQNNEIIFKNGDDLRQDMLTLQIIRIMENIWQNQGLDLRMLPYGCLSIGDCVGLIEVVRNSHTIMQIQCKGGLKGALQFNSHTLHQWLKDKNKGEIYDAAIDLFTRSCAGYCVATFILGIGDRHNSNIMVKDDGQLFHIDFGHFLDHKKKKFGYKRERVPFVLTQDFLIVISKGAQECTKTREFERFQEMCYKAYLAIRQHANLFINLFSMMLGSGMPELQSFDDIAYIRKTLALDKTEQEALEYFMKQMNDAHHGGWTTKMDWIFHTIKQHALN

SMILES	solubility [6] [µM]	IC50 [7] [µM]	hepatocyte CLint [8] [µL/min/1e6 cells]	logD [9]	Papp A→B at […], 0.1 µM [10] [×10⁻⁶ cm/s]	Papp A→B at […], 1 µM [11] [×10⁻⁶ cm/s]	hepatocyte CLint [12] [µL/min/1e6 cells]	also measured
CN(C)CCCOc1ccc(-c2ccc3ncc4c(c3c2)n(C2CCOCC2)c(=O)n4C)cn1	–	–	–	–	–	–	–	Vdss [1]: 18 L/kg; bioavailability [2]: 57%; Vdss [3]: 4.3 L/kg; bioavailability [4]: 54%; pKa [5]: 9.4
COCc1ccc(-c2ccc3ncc4c(c3c2)n(C2CCOCC2)c(=O)n4C)cn1	19 (≈ 7.68 µg/mL)	> 12.6	< 3	2.3	–	–	–	–
COCc1ccc(-c2ccc3ncc4c(c3c2)n([C@H]2CCCOC2)c(=O)n4C)cn1	125 (≈ 50.6 µg/mL)	–	3.2	2.5	35	27	28	–
CC(C)n1c(=O)n(C)c2cnc3ccc(-c4ccc(OCCCN(C)C)cc4)cc3c21	323 (≈ 135 µg/mL)	> 31.6	18	2.7	–	24	46	–
CC(C)n1c(=O)n(C)c2cnc3ccc(-c4ccc(O[C@H]5CCN(C)C5)nc4)cc3c21	> 1000	–	6.2	2.4	–	27	15	–
COCc1ccc(-c2ccc3ncc4c(c3c2)n(C(C)C)c(=O)n4C)cn1	42 (≈ 15.2 µg/mL)	–	34	2.7	39	–	9	–
CC(C)n1c(=O)n(C)c2cnc3ccc(-c4ccc(OCCCCN(C)C)nc4)cc3c21	39 (≈ 16.9 µg/mL)	> 15.8	2.1	1.9	5	–	19	–
CC(C)n1c(=O)n(C)c2cnc3ccc(-c4ccc(OCCCN5CCCCC5)nc4)cc3c21	826 (≈ 380 µg/mL)	–	2.4	2.6	–	25	5.8	–
CC(C)n1c(=O)n(C)c2cnc3ccc(-c4ccc(OC[C@@H]5CCN(C)C5)nc4)cc3c21	> 1000	> 31.6	5.7	1.7	15	23	15	–
CC(C)n1c(=O)n(C)c2cnc3ccc(-c4ccc(N5CC(N(C)C)C5)nc4)cc3c21	10 (≈ 4.17 µg/mL)	–	4.8	3	18	32	44	pKa [5]: 7.1
CC(C)n1c(=O)n(C)c2cnc3ccc(-c4ccc(OCCN(C)C)nc4)cc3c21	421 (≈ 171 µg/mL)	> 25.1	6.1	2.1	–	52	24	–
CC(C)n1c(=O)n(C)c2cnc3ccc(-c4ccc(N5CC[C@H](N(C)C)C5)nc4)cc3c21	137 (≈ 59 µg/mL)	–	3.8	3	–	22	25	–
CC(C)n1c(=O)n(C)c2cnc3ccc(-c4ccc(N5CC6(CN(C)C6)C5)nc4)cc3c21	928 (≈ 398 µg/mL)	> 31.6	< 1	1.7	–	6	2.4	–
CO[C@H]1CC[C@H](n2c(=O)n(C)c3cnc4ccc(-c5ccc(OCCCN(C)C)cc5)cc4c32)C1	604 (≈ 287 µg/mL)	–	8.7	2.7	9.7	18	8.7	–
CO[C@H]1C[C@H](n2c(=O)n(C)c3cnc4ccc(-c5ccc(OCCCN6CCCCC6)nc5)cc4c32)C1	> 1000	–	2.6	2.4	17	–	6.6	IC50 [13]: 2 µM; fraction unbound at 16 h [14]: 0.04; bioavailability [2]: 19%; IC50 [15]: > 1.26 µM; Vdss [3]: 2.4 L/kg; fraction unbound at 16 h [16]: 0.19; half-life [17]: 4 h; fraction unbound at 16 h [18]: 0.22
CC(C)n1c(=O)n(C)c2cnc3cc(F)c(-c4ccc(N5CCN(C)CC5)nc4)cc3c21	17 (≈ 7.39 µg/mL)	> 31.6	6.5	3.2	17	19	22	pKa [5]: 7.8
CC(C)n1c(=O)n(C)c2cnc3cc(F)c(-c4ccc(N5CCC(N(C)C)CC5)nc4)cc3c21	787 (≈ 364 µg/mL)	> 31.6	2.4	2.4	9.4	22	6.3	pKa [5]: 9.1
COCc1ccc(-c2ccc3ncc4c(c3c2)n([C@@H]2CCOCC2(C)C)c(=O)n4C)cn1	521 (≈ 225 µg/mL)	–	< 1	2.7	39	–	12	half-life [19]: 3.3 h; Vdss [1]: 3.7 L/kg; IC50 [13]: > 5.01 µM; fraction unbound at 16 h [14]: 0.14; bioavailability [2]: 39%; IC50 [15]: 0.501 µM; Vdss [3]: 1.9 L/kg; bioavailability [4]: 9%; fraction unbound at 16 h [16]: 0.08; IC50 [20]: 1.58 µM; half-life [17]: 1.1 h; fraction unbound at 16 h [18]: 0.23
Cn1c(=O)n(C2CCOCC2)c2c3cc(-c4ccc(OCCCN5CCCCC5)cc4)ccc3ncc21	88 (≈ 44.1 µg/mL)	> 15.8	2.9	2.5	7.5	13	5.3	–
COCc1ccc(-c2ccc3ncc4c(c3c2)n([C@H]2C[C@@H](CO)C2)c(=O)n4C)cn1	990 (≈ 400 µg/mL)	–	3.5	2	–	3.2	20	–
CN(C)CCCOc1ccc(-c2ccc3ncc4c(c3c2)n([C@@H]2CCCOC2)c(=O)n4C)cc1	851 (≈ 392 µg/mL)	> 31.6	7.9	2.4	9.7	22	8.1	–
COCc1ccc(-c2ccc3ncc4c(c3c2)n([C@@H]2CC[C@@H](OC)C2)c(=O)n4C)cn1 (relative stereo)	789 (≈ 330 µg/mL)	–	5.3	3	37	24	40	–
